Values of other authors as cited in patent EP1085079A1, “Treatment compositions for fabrics” (THE PROCTER & GAMBLE COMPANY, priority 1999, dated 2001).

Row | Compound | stability over a wide pH range
1 | Cn1sc2c(c1=O)CCC2 [Promexal, 2-methyl-4,5-trimethylene-4-isothiazolin-3-one] | 4-12
2 | O=c1[nH]sc2ccccc12 [Proxel, 1,2-benzisothiazolin-3-one] | 4-12
